{
  "source": "patent US20100004459A1",
  "about": "“2-PHENYLNICOTINIC ACID DERIVATIVE” (NIPPON ZOKI PHARMACEUTICAL CO., LTD., priority 2006, published 2010)",
  "key": {"xanthine oxidase": {"biological_target": "T1, xanthine oxidase (Bos taurus, UniProt P80457)", "T1 construct": "derived from milk; manufactured by Sigma; purchased Sigma; host or cells: milk (natural source)", "T1 sequence (P80457 whole entry)": "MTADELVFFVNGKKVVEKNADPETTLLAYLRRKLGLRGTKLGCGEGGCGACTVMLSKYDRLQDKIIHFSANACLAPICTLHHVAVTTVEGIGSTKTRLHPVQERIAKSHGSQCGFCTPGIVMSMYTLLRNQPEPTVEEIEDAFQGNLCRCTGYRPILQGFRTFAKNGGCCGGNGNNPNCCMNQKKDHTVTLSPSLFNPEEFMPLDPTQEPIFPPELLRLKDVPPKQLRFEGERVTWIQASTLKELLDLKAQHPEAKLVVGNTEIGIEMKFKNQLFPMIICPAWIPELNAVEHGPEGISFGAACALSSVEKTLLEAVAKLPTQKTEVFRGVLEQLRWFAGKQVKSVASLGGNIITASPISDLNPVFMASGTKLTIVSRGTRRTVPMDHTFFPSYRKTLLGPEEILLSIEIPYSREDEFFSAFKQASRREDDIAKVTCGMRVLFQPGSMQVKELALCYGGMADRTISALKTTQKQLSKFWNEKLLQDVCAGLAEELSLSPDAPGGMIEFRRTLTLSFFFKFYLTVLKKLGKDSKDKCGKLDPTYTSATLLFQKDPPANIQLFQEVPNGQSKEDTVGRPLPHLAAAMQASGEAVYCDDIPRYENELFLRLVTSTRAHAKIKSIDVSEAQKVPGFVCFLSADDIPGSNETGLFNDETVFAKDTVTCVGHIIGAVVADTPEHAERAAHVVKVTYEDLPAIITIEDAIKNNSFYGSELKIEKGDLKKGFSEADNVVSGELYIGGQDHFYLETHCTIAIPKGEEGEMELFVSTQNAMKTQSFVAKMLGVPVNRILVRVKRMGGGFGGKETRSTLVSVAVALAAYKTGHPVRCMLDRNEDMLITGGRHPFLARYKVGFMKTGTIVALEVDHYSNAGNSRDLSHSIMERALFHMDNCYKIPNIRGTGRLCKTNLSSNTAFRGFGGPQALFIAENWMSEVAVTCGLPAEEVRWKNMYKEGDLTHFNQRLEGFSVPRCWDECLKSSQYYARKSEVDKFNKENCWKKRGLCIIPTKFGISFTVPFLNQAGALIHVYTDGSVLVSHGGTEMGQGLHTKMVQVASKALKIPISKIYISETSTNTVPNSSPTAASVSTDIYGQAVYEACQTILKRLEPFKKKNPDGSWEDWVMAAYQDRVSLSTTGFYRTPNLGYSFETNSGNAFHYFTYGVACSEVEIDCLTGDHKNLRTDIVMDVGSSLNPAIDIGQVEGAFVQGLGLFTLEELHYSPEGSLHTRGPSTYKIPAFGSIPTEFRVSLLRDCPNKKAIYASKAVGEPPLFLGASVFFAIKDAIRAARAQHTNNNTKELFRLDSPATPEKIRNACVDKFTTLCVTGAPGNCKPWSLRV", "experiment": "Test for xanthine oxidase inhibitory activity", "type": "biochemical", "conditions": "xanthine oxidase derived from milk (Sigma); substrate xanthine; uric acid production at OD 292 nm, 37° C.", "procedure": "Evaluation of inhibitory activity of the present invention to xanthine oxidase was conducted using xanthine as a substrate by measuring the amount of uric acid produced by xanthine oxidase which is an oxidizing enzyme therefor. Thus, xanthine oxidase (0.01 unit/L, 20 μL/well; derived from milk; manufactured by Sigma), diethylenetriamine pentaacetate (0.01 mol/L, 20 μL/well), phosphate buffer (20 μL/well), distilled water (100 μL/well) and a diluted solution (20 μL/well) of a test substance were mixed in a 96-well quartz microplate. After preincubating for 5 minutes in a microplate spectrophotometer warmed at 37° C., xanthine (1 mmol/L, 20 μL/well) was added. The changes with elapse of time in OD 292 nm based on the production of uric acid was measured using a microplate spectrophotometer warmed at 37° C. whereby the initial reaction velocity was measured. Xanthine oxidase inhibitory activity was calculated by the following formula and concentration of the test substance for 50% suppression (IC50 value) was calculated.\nInhibition Rate(%)={[(Initial Reaction Velocity of the Reaction Control)-(Initial Reaction Velocity upon Addition of Test Substance)]/[Initial Reaction Velocity of the Reaction Control]}×100"}, "[1]": {"test_system": "model rats of fructose-loaded hypertriglyceridemia", "experiment": "Model rats of fructose-loaded hypertriglyceridemia: action for lowering of triglyceride in serum", "type": "in vivo", "conditions": "Rattus norvegicus, po; male SD rats, 75% fructose solution for three days; 100 mg/kg orally once daily; serum 2 hours after final administration; read-out: Inhibition Rate (%) Action for lowering of triglyceride", "procedure": "(§1) The test was conducted according to a method of Kusama, et al. (Folia Pharmacologica Japonica, volume 92, pages 175 to 180, 1988). Thus, male rats of SD strain of 6 to 7 weeks age were made in free access to a 75% (w/v) D(−)-fructose solution for three days. During the period of fructose ingestion, a test substance (100 mg/kg) was suspended in 1% methyl cellulose and orally administered once daily. After 2 hours from the final administration, about 500 μL per rat of blood was collected using a hematocrit capillary from orbital venous plexus under anesthetization with ether and centrifuged (3000 rpm at 4° C. for 20 minutes) whereupon the serum was prepared.\n(1) Action for Lowering of Triglyceride in Serum\nThe triglyceride (TG) in the serum was measured by a Triglyceride E-Test Wako (manufactured by Wako Pure Chemical Industries, Ltd.) and each TG lowering rate was determined by the following formula.\nTG Lowering Rate(%)={[(TG Value of Control Animal)−(TG Value of Animal Administered with Test Substance)]/[(TG Value of Control Animal)-(TG Value of Untreated Animal)]}×100"}, "[2]": {"test_system": "model rats of fructose-loaded hypertriglyceridemia", "experiment": "Model rats of fructose-loaded hypertriglyceridemia: action for lowering of uric acid in serum", "type": "in vivo", "conditions": "Rattus norvegicus, po; male SD rats, 75% fructose solution for three days; 100 mg/kg orally once daily; serum 2 hours after final administration; read-out: Inhibition Rate (%) Action for lowering of uric acid", "procedure": "as §1\n(2) Action for Lowering of Uric Acid in Serum\nUric acid value in the serum was measured by a Uric acid C-Test Wako (manufactured by Wako Pure Chemical Industries, Ltd.) using the above serum and each uric acid lowering rate was determined by the following formula.\nUric Acid Lowering Rate(%)={[(Uric Acid Value of Control Animal)-(Uric Acid Value of Animals Administered with Test Substance)]/[Uric Acid Value of Control Animal]}×100"}},
  "data": [
    {"smiles": "N#Cc1cc(-c2ncccc2C(=O)O)ccc1OCC1CCCCC1", "note": "[Example 47, 2-(3-Cyano-4-cyclohexylmethoxyphenyl)nicotinic acid]", "values": [
      {"measurement": "IC50", "setting": "xanthine oxidase", "result": 24, "unit": "nM"},
      {"measurement": "inhibition in vivo at 100 mg/kg", "setting": "[1]", "result": 46.3, "unit": "%"},
      {"measurement": "inhibition in vivo at 100 mg/kg", "setting": "[2]", "result": 52.6, "unit": "%"},
      {"measurement": "melting point", "result": "220 to 221", "unit": "°C"}
    ]},
    {"smiles": "N#Cc1cc(-c2ncccc2C(=O)O)ccc1OCCc1ccccc1C(F)(F)F", "note": "[Example 56]", "values": [
      {"measurement": "IC50", "setting": "xanthine oxidase", "result": 36, "unit": "nM"},
      {"measurement": "inhibition in vivo at 100 mg/kg", "setting": "[1]", "result": 72.1, "unit": "%"},
      {"measurement": "inhibition in vivo at 100 mg/kg", "setting": "[2]", "result": 38.7, "unit": "%"},
      {"measurement": "melting point", "result": "187 to 188", "unit": "°C"}
    ]},
    {"smiles": "N#Cc1cc(-c2ncccc2C(=O)O)ccc1OCCCc1ccc(C(F)(F)F)cc1", "note": "[Example 59, 2-{3-Cyano-4-[3-(4-trifluoromethylphenyl)propoxy]phenyl}nicotinate]", "values": [
      {"measurement": "IC50", "setting": "xanthine oxidase", "result": 42, "unit": "nM"},
      {"measurement": "inhibition in vivo at 100 mg/kg", "setting": "[1]", "result": 53.2, "unit": "%"},
      {"measurement": "inhibition in vivo at 100 mg/kg", "setting": "[2]", "result": 29.3, "unit": "%"},
      {"measurement": "melting point", "result": "183 to 184", "unit": "°C"}
    ]},
    {"smiles": "N#Cc1cc(-c2ncccc2C(=O)O)ccc1OCCCCc1ccccc1", "note": "[Example 62, 2-[3-Cyano-4-(4-phenylbutoxy)phenyl]nicotinic acid]", "values": [
      {"measurement": "IC50", "setting": "xanthine oxidase", "result": 27, "unit": "nM"},
      {"measurement": "inhibition in vivo at 100 mg/kg", "setting": "[1]", "result": 71.1, "unit": "%"},
      {"measurement": "inhibition in vivo at 100 mg/kg", "setting": "[2]", "result": 43.6, "unit": "%"},
      {"measurement": "melting point", "result": "163 to 164", "unit": "°C"}
    ]},
    {"smiles": "CCC(C)(C)COc1ccc(-c2ncccc2C(=O)O)cc1C#N", "note": "[Example 72, 2-[3-Cyano-4-(2,2-dimethylbutoxy)phenyl]nicotinic acid]", "values": [
      {"measurement": "IC50", "setting": "xanthine oxidase", "result": 28, "unit": "nM"},
      {"measurement": "inhibition in vivo at 100 mg/kg", "setting": "[1]", "result": 34.2, "unit": "%"},
      {"measurement": "inhibition in vivo at 100 mg/kg", "setting": "[2]", "result": 48.5, "unit": "%"},
      {"measurement": "melting point", "result": "166 to 167", "unit": "°C"}
    ]},
    {"smiles": "N#Cc1cc(-c2ncccc2C(=O)O)ccc1OCC1CCCC1", "note": "[Example 75, 2-(3-Cyano-4-cyclopentylmethoxyphenyl)nicotinic acid]", "values": [
      {"measurement": "IC50", "setting": "xanthine oxidase", "result": 24, "unit": "nM"},
      {"measurement": "inhibition in vivo at 100 mg/kg", "setting": "[1]", "result": 25.7, "unit": "%"},
      {"measurement": "inhibition in vivo at 100 mg/kg", "setting": "[2]", "result": 49.5, "unit": "%"},
      {"measurement": "melting point", "result": "227 to 228", "unit": "°C"}
    ]},
    {"smiles": "CC1(COc2ccc(-c3ncccc3C(=O)O)cc2C#N)CCCCC1", "note": "[Example 77, 2-[3-Cyano-4-(1-methylcyclohexylmethoxy)phenyl]nicotinic acid]", "values": [
      {"measurement": "IC50", "setting": "xanthine oxidase", "result": 24, "unit": "nM"},
      {"measurement": "inhibition in vivo at 100 mg/kg", "setting": "[1]", "result": 39.6, "unit": "%"},
      {"measurement": "inhibition in vivo at 100 mg/kg", "setting": "[2]", "result": 27.8, "unit": "%"},
      {"measurement": "melting point", "result": "100 to 101", "unit": "°C"}
    ]},
    {"smiles": "CC(C)(COc1ccc(-c2ncccc2C(=O)O)cc1C#N)c1ccccc1", "note": "[Example 78, 2-[3-Cyano-4-(2-methyl-2-phenylpropoxy)phenyl]nicotinic acid]", "values": [
      {"measurement": "inhibition in vivo at 100 mg/kg", "setting": "[1]", "result": 21.6, "unit": "%"},
      {"measurement": "inhibition in vivo at 100 mg/kg", "setting": "[2]", "result": 19.4, "unit": "%"},
      {"measurement": "melting point", "result": "221 to 222", "unit": "°C"}
    ]},
    {"smiles": "CC(C)(C)COc1ccc(-c2ncccc2C(=O)O)cc1C#N", "note": "[Example 83, 2-[3-Cyano-4-(2,2-dimethylpropoxy)phenyl]nicotinic acid]", "values": [
      {"measurement": "IC50", "setting": "xanthine oxidase", "result": 42, "unit": "nM"},
      {"measurement": "inhibition in vivo at 100 mg/kg", "setting": "[1]", "result": 112, "unit": "%"},
      {"measurement": "inhibition in vivo at 100 mg/kg", "setting": "[2]", "result": 56.6, "unit": "%"},
      {"measurement": "melting point", "result": "231 to 232", "unit": "°C"}
    ]},
    {"smiles": "CC(C)(C)CCOc1ccc(-c2ncccc2C(=O)O)cc1C#N", "note": "[Example 84, 2-[3-Cyano-4-(3,3-dimethylbutoxy)phenyl]nicotinic acid]", "values": [
      {"measurement": "IC50", "setting": "xanthine oxidase", "result": 18, "unit": "nM"},
      {"measurement": "inhibition in vivo at 100 mg/kg", "setting": "[1]", "result": 41.4, "unit": "%"},
      {"measurement": "inhibition in vivo at 100 mg/kg", "setting": "[2]", "result": 69.2, "unit": "%"},
      {"measurement": "melting point", "result": "206 to 207", "unit": "°C"}
    ]},
    {"smiles": "Cc1ccccc1CCOc1ccc(-c2ncccc2C(=O)O)cc1C#N", "note": "[Example 102, 2-[3-Cyano-4-(2-methylphenethyloxy)-phenyl]nicotinic acid]", "values": [
      {"measurement": "IC50", "setting": "xanthine oxidase", "result": 53, "unit": "nM"},
      {"measurement": "inhibition in vivo at 100 mg/kg", "setting": "[1]", "result": 28.4, "unit": "%"},
      {"measurement": "inhibition in vivo at 100 mg/kg", "setting": "[2]", "result": 25.2, "unit": "%"}
    ]}
  ]
}
